Usually pIC50 stands for −log10 of the IC50, conventionally taken in molar units.

pIC50: −log10 of the molar value.

The target in this assay is T1, human NaV1.8 (Homo sapiens, UniProt Q9Y5Y9).
T1 construct: expressed in transfected cells
T1 sequence (Q9Y5Y9 whole entry): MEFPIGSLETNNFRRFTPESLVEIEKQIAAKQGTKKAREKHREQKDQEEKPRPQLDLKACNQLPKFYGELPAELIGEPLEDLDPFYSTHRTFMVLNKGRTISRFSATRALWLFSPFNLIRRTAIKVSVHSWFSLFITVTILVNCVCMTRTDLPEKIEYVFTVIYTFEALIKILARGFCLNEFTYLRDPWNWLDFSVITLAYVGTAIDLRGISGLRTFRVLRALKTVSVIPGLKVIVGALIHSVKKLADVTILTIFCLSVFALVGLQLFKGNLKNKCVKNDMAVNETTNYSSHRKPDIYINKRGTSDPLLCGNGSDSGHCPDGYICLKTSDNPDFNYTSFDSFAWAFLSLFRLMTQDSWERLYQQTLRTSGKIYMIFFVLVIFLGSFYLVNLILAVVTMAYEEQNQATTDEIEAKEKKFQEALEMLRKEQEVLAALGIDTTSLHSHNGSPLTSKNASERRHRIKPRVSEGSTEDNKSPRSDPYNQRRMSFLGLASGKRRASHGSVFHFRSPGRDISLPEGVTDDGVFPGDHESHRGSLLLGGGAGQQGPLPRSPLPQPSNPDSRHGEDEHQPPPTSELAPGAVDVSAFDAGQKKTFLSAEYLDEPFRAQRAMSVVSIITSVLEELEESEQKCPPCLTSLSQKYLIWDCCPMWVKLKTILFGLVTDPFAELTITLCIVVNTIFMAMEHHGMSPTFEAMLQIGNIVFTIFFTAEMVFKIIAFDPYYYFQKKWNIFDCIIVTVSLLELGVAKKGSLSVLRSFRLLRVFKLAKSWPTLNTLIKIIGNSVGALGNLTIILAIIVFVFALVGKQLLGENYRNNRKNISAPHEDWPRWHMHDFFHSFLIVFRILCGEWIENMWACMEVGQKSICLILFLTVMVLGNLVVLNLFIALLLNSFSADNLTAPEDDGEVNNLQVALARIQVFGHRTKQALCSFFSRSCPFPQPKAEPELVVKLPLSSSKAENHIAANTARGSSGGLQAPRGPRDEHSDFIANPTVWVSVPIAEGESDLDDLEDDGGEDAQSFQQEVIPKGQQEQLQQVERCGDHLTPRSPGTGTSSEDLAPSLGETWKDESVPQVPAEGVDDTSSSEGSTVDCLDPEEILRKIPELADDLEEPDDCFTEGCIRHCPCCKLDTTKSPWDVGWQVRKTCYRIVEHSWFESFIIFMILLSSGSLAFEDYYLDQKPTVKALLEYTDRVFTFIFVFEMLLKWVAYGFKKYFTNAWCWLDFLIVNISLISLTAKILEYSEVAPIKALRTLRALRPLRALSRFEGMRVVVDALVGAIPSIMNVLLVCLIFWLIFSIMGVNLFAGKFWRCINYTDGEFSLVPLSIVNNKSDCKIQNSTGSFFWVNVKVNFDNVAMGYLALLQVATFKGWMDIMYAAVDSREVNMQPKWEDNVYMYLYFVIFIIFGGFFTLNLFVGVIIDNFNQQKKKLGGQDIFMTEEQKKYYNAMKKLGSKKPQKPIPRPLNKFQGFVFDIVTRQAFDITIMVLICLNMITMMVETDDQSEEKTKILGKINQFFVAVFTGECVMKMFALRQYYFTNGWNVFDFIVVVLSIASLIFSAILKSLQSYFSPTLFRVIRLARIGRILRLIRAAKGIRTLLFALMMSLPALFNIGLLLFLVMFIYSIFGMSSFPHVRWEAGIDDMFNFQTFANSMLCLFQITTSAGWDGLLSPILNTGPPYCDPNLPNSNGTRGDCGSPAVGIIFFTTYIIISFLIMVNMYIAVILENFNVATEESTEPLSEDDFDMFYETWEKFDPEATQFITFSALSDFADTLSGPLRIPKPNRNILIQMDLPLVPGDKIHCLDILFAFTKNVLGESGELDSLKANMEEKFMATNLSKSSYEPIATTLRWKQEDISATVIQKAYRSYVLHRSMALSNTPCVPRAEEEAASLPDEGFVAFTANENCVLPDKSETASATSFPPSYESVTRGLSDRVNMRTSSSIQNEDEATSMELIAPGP
Description: Nav1.8 Qube® Assay (automated 384-well patch-clamp, inhibition of sodium current). In kind it is cell-based. The conditions noted are these: human NaV1.8 channels stably expressed in HEK 293 cells, room temperature. In short, it runs like this: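 Whole-cell voltage clamp at room temperature in HEK293 cells stably expressing NaV1.8; from −90 mV hold, 10 s 1 Hz train of 20 ms pulses to 10 mV with 980 ms repolarization to −67 mV. Peak currents of 1st and 10th pulses give resting and inactivated-state IC50s, Hill fit.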
On the technique in general: The patch-clamp technique gives a direct electrical read-out from membranes.
For the molecule `C[C@@H]1C(=O)NCCN1C(=O)NC(c1ccc(F)c(C(F)(F)F)c1)C1CCC(C(F)(F)F)OC1` (single isomer, unassigned) [Example 60B, (2R)—N-((1(R or S))-(4-fluoro-3-(trifluoromethyl)phenyl)-trans-(6-(trifluoromethyl)tetrahydro-2H-pyran-3-yl)methyl)-2-methyl-3-oxopiperazine-1-carboxamide], the negative-log IC50 (pIC50) is 7.29.

Molecule `C[C@@H]1C(=O)NCCN1C(=O)NC(c1ccc(F)c(Cl)c1F)C1COc2ccccc2C1` (single isomer, unassigned) [Example 62A, (R)—N—((R or S)-(3-chloro-2,4-difluorophenyl)((R or S)-chroman-3-yl)methyl)-2-methyl-3-oxopiperazine-1-carboxamide] showed a negative logarithm of the IC50 (pIC50) of 8.49.

With `C[C@@H]1C(=O)NCCN1C(=O)NC(c1ccc(F)c(Cl)c1F)C1COc2ccccc2C1` (single isomer, unassigned) [Example 62B, (R)—N—((R or S)-(3-chloro-2,4-difluorophenyl)((S or R)-chroman-3-yl)methyl)-2-methyl-3-oxopiperazine-1-carboxamide], the pIC50 was 6.45.

In turn, `C[C@@H]1C(=O)NCCN1C(=O)NC(c1ccc(F)c(Cl)c1F)C1COc2ccccc2C1` (single isomer, unassigned) [Example 62C, (R)—N—((S or R)-(3-chloro-2,4-difluorophenyl)((R or S)-chroman-3-yl)methyl)-2-methyl-3-oxopiperazine-1-carboxamide] gave a negative logarithm of the IC50 (pIC50) of 6.31.

`C[C@@H]1C(=O)NCCN1C(=O)NC(c1ccc(F)c(Cl)c1F)C1COc2ccccc2C1` (single isomer, unassigned) [Example 62D, (R)—N—((S or R)-(3-chloro-2,4-difluorophenyl)((S or R)-chroman-3-yl)methyl)-2-methyl-3-oxopiperazine-1-carboxamide] showed a pIC50 of 9.10.

For the molecule `O=C1NCCN(C(=O)N[C@H](c2ccc(F)c(Cl)c2F)[C@H]2C[C@H](C(F)(F)F)C2)C1C(F)(F)F` (single isomer, unassigned) [Example 63A, (R or S)—N—((S)-(3-chloro-2,4-difluorophenyl)((trans)-3-(trifluoromethyl)cyclobutyl)methyl)-3-oxo-2-(trifluoromethyl)piperazine-1-carboxamide], the pIC50 is 8.74.

Turning to `O=C1NCCN(C(=O)N[C@H](c2ccc(F)c(Cl)c2F)[C@H]2C[C@H](C(F)(F)F)C2)C1C(F)(F)F` (single isomer, unassigned) [Example 63B, (S or R)—N—((S)-(3-chloro-2,4-difluorophenyl)((trans)-3-(trifluoromethyl)cyclobutyl)methyl)-3-oxo-2-(trifluoromethyl)piperazine-1-carboxamide], the negative logarithm of the IC50 (pIC50) was 8.04. Against the preceding molecule, the pIC50 is 0.70 log units lower.

The molecule `C[C@@H]1C(=O)NCCN1C(=O)N[C@@H](c1ccc(F)c(Cl)c1F)[C@H]1C[C@H](C(F)(F)F)C1` [Example 20B, (R)—N—((R)-(3-chloro-2,4-difluorophenyl)(trans-3-(trifluoromethyl)cyclobutyl)methyl)-2-methyl-3-oxopiperazine-1-carboxamide] showed a pIC50 of 6.72.

In turn, `O=C1CN(C(=O)N[C@H](c2ccc(F)c(Cl)c2F)[C@H]2C[C@H](C(F)(F)F)C2)CCN1` [Example 26, N—((S)-(3-chloro-2,4-difluorophenyl)(trans-3-(trifluoromethyl)cyclobutyl)methyl)-3-oxopiperazine-1-carboxamide] showed a pIC50 of 8.17.

In turn, `[2H][C@@]1(CF)C(=O)NCCN1C(=O)N[C@H](c1ccc(F)c(Cl)c1F)[C@H]1C[C@H](C(F)(F)F)C1` [Example 61, (S)—N—((S)-(3-chloro-2,4-difluorophenyl)((trans)-3-(trifluoromethyl)cyclobutyl)methyl)-2-(fluoromethyl)-3-oxopiperazine-2-d-1-carboxamide] had a pIC50 of 9.15. Compared with the last molecule, the pIC50 is 0.98 log units higher.

As to `O=C1NCCN(C(=O)N[C@H](c2ccc(F)c(Cl)c2F)[C@H]2C[C@H](C(F)(F)F)C2)[C@@H]1CO` [Example 64, (R)—N—((S)-(3-chloro-2,4-difluorophenyl)((trans)-3-(trifluoromethyl)cyclobutyl)methyl)-2-(hydroxymethyl)-3-oxopiperazine-1-carboxamide], the pIC50 was 8.49.

Values taken from US20220380338A1, “CYCLOALKYL 3-OXOPIPERAZINE CARBOXAMIDES AND CYCLOHETEROALKYL 3-OXOPIPERAZINE CARBOXAMIDES AS NAV1.8 INHIBITORS” (Merck Sharp & Dohme LLC, priority 2021, published 2022).
